{
  "source": "patent US5874455A",
  "about": "“Method for treatment of cataract with radical scavenger” (priority 1993, dated 1999)",
  "key": {"[1]": {"system": "Diamide-Treated Mice Lenses", "test": "Na+/K+ ratio and Ca2+ contents in diamide-treated mice lenses", "assay_type": "cell-based, mouse (ddY)", "settings": "for Ca2+ content (in words) / Na+/K+ ratio (in words): 1 Mm (so in the source), vs control levels; for Ca2+ content / K+ content / Na+ content / Na/K ratio: diamide-treated lenses, 1 mM agent", "method": "Male ddY mice, 6 weeks old, were killed by decapitation, and the […] were excised. The lenses were removed by a posterior approach and then transferred on a nylon net to a petri dish containing D-MEM medium (low glucose). The lenses were incubated at 37° C. for 19-20 hr in CO2 incubator under 5% CO2 -air and clear transparent lenses were collected to be used for following experiments. The lenses were incubated at 37° C. for 1.5 hr in 3 ml of isotonic HEPES buffer (10 mM HEPES, 136.2 mM NaCl, 5.3 mM KCl, 1.0 mM K2 HPO4, 1.7 mM CaC2 .cndot.2H2 O, 5.5 mM glucose pH 7.4) containing 1 mM diamide and the HEPES buffer without glucose. Those were transferred to an incubation test tube containing 3 ml of isotonic HEPES buffer (pH 7.4) with 1 mM DDC or GE. The diamide treated and non-treated controls were treated by the 5 hr-incubation without the above agents. The wet weight of these treated lenses were determined. Lenses were dried in vacuo at 100° C. for 8 hr, and then digested in 60% nitric acid (100 μl/lens) at 80° C. to degrade organic substances. One milliliter of purified water was added to the digests, and centrifuged at 3000×g for 10 min. Two tenth ml of the supernatant was mixed with 2 ml of purified water, and was used for measurement of Na^+ and K^+. One tenth milliliter of 100 μg/ml lanthanum chloride was added to the residual supernatant and used for measurement of Ca^2+, Na^+,K^+ and Ca^2+ contents in the lenses were determined by atomic absorption spectrometer (Hitachi 180-80, Tokyo, Japan)."}, "[2]": {"biological_target": "Aldose Reductase from Rat Crystalline Lens (Rattus norvegicus, UniProt P07943)", "test": "biochemical", "assay_type": "biochemical", "method": "Aldose reductase was prepared from rat lenses in the following manner. Lenses (20 to 30) were homogenized in 20 volumes of 5 mM sodium phosphate buffer (pH 7.4), followed by centrifugation at 18,000×g for 5 min to remove insoluble materials. Solid ammonium sulfate was added to the supernatant fluid to 30% saturation. The suspension was centrifuged at 18,000×g for 10 min and the supernatant was recovered. Aldose reductase was precipitated from 30% saturated solution by the addition of solid ammonium sulfate to 75% saturation, and obtained by centrifugation. The precipitate was collected and suspended in 3.2M ammonium sulfate.\nThe enzyme solution was assayed by following the absorbance at 340 nm on a Shimadzu UV-2000 spectrophotometer equipped with a temperature-controlled cuvette chamber. The solution (0.1 ml) was added to a cuvette containing phosphate buffer (1.6 ml, pH 6.2, 0.1M final concentration) and NADPH (0.1 ml, 0.25 mM final concentration), and the cuvette was inserted into the spectrophotometer. The reaction was started by the addition of DL-glyceraldehyde (0.1 ml, 50 mM final concentration) to the cuvette, and the decrease of absorbance at 340 nm for 5 min at 25° C. was measured. […] Agents to be tested were dissolved with a minimal amount of dimethylsulfoxide and diluted to the desired concentration with purified water. The resulting solution (0.1 ml) was added to the cuvette. The reference blank (to correct for non-specific oxidation of NADPH and absorption of the agents) was prepared by using water instead of DL-glyceraldehyde solution."}, "[3]": {"system": "rabbit cornea", "test": "In vitro transcorneal penetration of DDC from liposomes", "assay_type": "in vitro ADME", "method": "Male rabbit, 2.0 kg of body weight was sacrificed by a injection of lethal dose of pentobarbital into a […] and then two eyeballs were removed from […]. The cornea was set to the cell in which donor side was filled with liposomes containing DSF and in reservoir side with 10 mM HEPES buffer (pH 7.4) containing 136 mM NaCl, 5.3 mM KCl, 1.0 mM K2 HPO4, 1.7 mM CaCl2 and 5.5 mM glucose, shown in FIG. 2. The penetration was carried out at 37° C. for 0-6 hr. The sample (50 μl) was withdrawn from reservoir side at the indicated times. DDC in the sample was determined by the HPLC method (FIG. 2)."}, "[4]": {"system": "Diamide-Treatment Mice Lenses", "test": "GSH content in diamide-treated mice lenses", "assay_type": "cell-based, mouse (ddY)", "settings": "for GSH content: 1 mM diamide", "method": "Male ddY mice, 6 weeks old, were killed by decapitation, and the globes were excised. The lenses were removed by a posterior approach and then transferred on a nylon net to an petri containing D-MEM medium (low glucose). The lenses were incubated at 37 ° C. for […] and clear transparent lenses were collected to be used for following experiments. […] Those were transferred to an incubation test tube containing 3 ml of isotonic HEPES buffer (pH 7.4) containing 5.5 mM glucose with 1 mM DDC or GE (glutathione isopropyl ester). The diamide treated and non-treated controls were treated by the 5 hr--incubation without the above agents. The wet weight of these treated lenses were determined.\nThe treated lenses were homogenized with 0.5 ml of purified water by Teflon homogenizer. GSH in the homogenate was determined by the method of Beutler using DTNB and the HPLC method followed.\nFifty microliter of the lens homogenate were added into 100 μl of acetonitrile containing 100 μg of sodium pantothenate (internal standard) and centrifuged at 12,000 rpm for 10 min. The supernatant solution (10 μl) was injected into a HPLC apparatus, Shimadzu LC-10AD equipped with a column oven, CTO-6A and the chromatography were performed under the conditions: a column of Supersphere 100RP-18 (particle size: 4 μm, column size: 4.0×250 mm), mobile phase of 5% methanol containing 1.0% TFA, flow rate of 1 ml/min, and column temperature at 35° C."}, "[5]": {"settings": "pH 6.2, 25° C., DL-glyceraldehyde substrate, read-out: IC50"}},
  "note": "Where two headings read alike, the source gives them in different places.",
  "data": [
    {"smiles": "O[C@H](CS)[C@H](O)CS", "note": "(relative stereo) [DTT]", "values": [
      {"measurement": "Ca2+ content (in words)", "setting": "[1]", "value": "restored completely"},
      {"measurement": "Na+/K+ ratio (in words)", "setting": "[1]", "value": "restored completely"}
    ]},
    {"smiles": "CC(=C(CCO)SSCC1CCCO1)N(C=O)Cc1cnc(C)nc1N", "note": "(stereo in doubt) [Frusultiamine (Alinamine F), Frusultiamine]", "values": [
      {"measurement": "IC50", "setting": "[2]; [5]", "value": 1000, "unit": "µM"}
    ]},
    {"smiles": "CO[C@@]1(NC(=O)CSCC#N)C(=O)N2C(C(=O)O)=C(CSc3nnnn3C)CS[C@@H]21", "note": "[CMZ, cefmetazole]", "values": [
      {"measurement": "Ca2+ content (in words)", "setting": "[1]", "value": "restored completely"},
      {"measurement": "Na+/K+ ratio (in words)", "setting": "[1]", "value": "restored completely"},
      {"measurement": "Ca2+ content", "setting": "[1]", "value": "1.11 ± 0.36 mmol/kg of H2 O"},
      {"measurement": "K+ content", "setting": "[1]", "value": "84.91 ± 10.06 mmol/kg of H2 O"},
      {"measurement": "Na+ content", "setting": "[1]", "value": "40.59 ± 10.16 mmol/kg of H2 O"},
      {"measurement": "Na/K ratio", "setting": "[1]", "value": "0.50 ± 0.19"},
      {"measurement": "inhibitory activity against rat lens aldose reductase (in words)", "setting": "[2]", "value": "lower inhibitory activities"},
      {"measurement": "IC50", "setting": "[2]; [5]", "value": 450, "unit": "µM"}
    ]},
    {"smiles": "CCN(CC)C(=S)S", "note": "[DDC, Diethyldithiocarbamate]", "values": [
      {"measurement": "DDC content in the reservoir solution relative to that at pH 8.0", "setting": "[3]; pH 6.5, six hours after incubation", "value": "one third"},
      {"measurement": "effect of BSA on DDC penetration (in words)", "setting": "[3]; pH 8.0, 1.75% BSA in donor solution", "value": "did not affect"}
    ]},
    {"smiles": "CCN(CC)C(=S)[S-].[Na+]", "note": "[DDC-Na, Sodium diethyldithiocarbamate]", "values": [
      {"measurement": "GSH content", "setting": "[4]; DTNB method, 1 mM agent", "value": 9.8, "unit": "μg/lens"},
      {"measurement": "GSH content", "setting": "[4]; HPLC method, 1 mM agent", "value": 3.9, "unit": "μg/lens"},
      {"measurement": "Ca2+ content", "setting": "[1]", "value": "1.09 ± 0.33 mmol/kg of H2 O"},
      {"measurement": "K+ content", "setting": "[1]", "value": "86.25 ± 4.02 mmol/kg of H2 O"},
      {"measurement": "Na+ content", "setting": "[1]", "value": "36.56 ± 4.38 mmol/kg of H2 O"},
      {"measurement": "Na/K ratio", "setting": "[1]", "value": "0.43 ± 0.07"},
      {"measurement": "IC50", "setting": "[2]", "value": 2600, "unit": "µM"}
    ]},
    {"smiles": "CCN(CC)C(=S)SSC(=S)N(CC)CC", "note": "[DSF, tetraethylthiuram disulfide]", "values": [
      {"measurement": "inhibitory activity against rat lens aldose reductase (in words)", "setting": "[2]", "value": "lower inhibitory activities"},
      {"measurement": "IC50", "setting": "[2]; [5]", "value": 120, "unit": "µM"}
    ]},
    {"smiles": "CC(C)OC(=O)CNC(=O)[C@H](CS)NC(=O)CC[C@H](N)C(=O)O", "note": "[GE, Glutathione isopropyl ester]", "values": [
      {"measurement": "total GSH in diamide-treated lenses (in words)", "setting": "[4]; DTNB method, 1 mM agent", "value": "restored by the control GSH level"},
      {"measurement": "GSH content", "setting": "[4]; DTNB method, 1 mM agent", "value": 10.3, "unit": "μg/lens"},
      {"measurement": "restoring of GSH (in words)", "setting": "[4]; HPLC method", "value": "restoring of GSH"},
      {"measurement": "GSH content", "setting": "[4]; HPLC method, 1 mM agent", "value": 4.0, "unit": "μg/lens"},
      {"measurement": "Ca2+ content (in words)", "setting": "[1]", "value": "restored completely"},
      {"measurement": "Na+/K+ ratio (in words)", "setting": "[1]", "value": "restored completely"},
      {"measurement": "Ca2+ content", "setting": "[1]", "value": "1.39 ± 0.30 mmol/kg of H2 O"},
      {"measurement": "K+ content", "setting": "[1]", "value": "79.67 ± 8.63 mmol/kg of H2 O"},
      {"measurement": "Na+ content", "setting": "[1]", "value": "51.60 ± 9.57 mmol/kg of H2 O"},
      {"measurement": "Na/K ratio", "setting": "[1]", "value": "0.67 ± 0.20"},
      {"measurement": "inhibitory activity against rat lens aldose reductase (in words)", "setting": "[2]", "value": "lower inhibitory activities"},
      {"measurement": "IC50", "setting": "[2]; [5]", "value": 760, "unit": "µM"}
    ]},
    {"smiles": "N[C@@H](CCC(=O)N[C@@H](CS)C(=O)NCC(=O)O)C(=O)O", "note": "[Glutathione (GSH), Glutathione]", "values": [
      {"measurement": "IC50", "setting": "[2]; [5]", "value": 1550, "unit": "µM"}
    ]},
    {"smiles": "O=C(O)c1cc(O)c2c3nc4ccccc4oc-3cc(=O)c2n1", "note": "[Pirenoxine (Catalin), Pirenoxine]", "values": [
      {"measurement": "inhibitory activity against rat lens aldose reductase (in words)", "setting": "[2]", "value": "lower inhibitory activities"},
      {"measurement": "IC50", "setting": "[2]; [5]", "value": 17.5, "unit": "µM"}
    ]},
    {"smiles": "C[C@@H]1O[C@@H](Oc2c(-c3ccc(O)c(O)c3)oc3cc(O)cc(O)c3c2=O)[C@H](O)[C@H](O)[C@H]1O", "note": "[Quercitrin]", "values": [
      {"measurement": "IC50", "setting": "[2]", "value": 0.26, "unit": "µM"},
      {"measurement": "inhibitory activity against rat lens aldose reductase (in words)", "setting": "[2]", "value": "lower inhibitory activities"}
    ]},
    {"smiles": "CC(S)C(=O)NCC(=O)O", "note": "(stereo not shown) [Tiopronin]", "values": [
      {"measurement": "IC50", "setting": "[2]; [5]", "value": 1350, "unit": "µM"}
    ]}
  ]
}
